Compound in one test: NC(=O)CCCCC1CCSS1 [lipoamide]
In words: thermal stability z-score vs DMSO; higher = more thermally stabilized by treatment. The following applies: HeLa, lipoamide concentration 100 µM. How it is done:
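Cellular thermal proteome profiling in HeLa cells. Cells were treated with 100 µM lipoamide for 1 h, with or without 1 mM arsenate for a further 1 h, then heated to ten temperatures (37-66.3 °C), and soluble protein was quantified by TMT mass spectrometry relative to 0.1% DMSO controls. The thermal stability score (sum of log2 fold changes minus the abundance score) was transformed to a z-score; mean of n = 3 experiments.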

Compound in the next test: O=[As]([O-])(O)O.[K+] [potassium arsenate]
Described as above. The following applies: HeLa; arsenate concentration 1 mM. How it is done:
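Cellular thermal proteome profiling in HeLa cells treated with 1 mM arsenate for 1 h (DMSO pretreatment), heated to ten temperatures (37-66.3 °C). Soluble protein was quantified by TMT mass spectrometry relative to DMSO controls; the thermal stability score was transformed to a z-score; mean of n = 3 experiments.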

[1] abbreviates: arsenate co-treatment: 1 mM arsenate 1 h.

The text below walks through data of the supplement of paper PMC12463676, “Small-molecule dissolution of stress granules by redox modulation benefits ALS models” (Nature Chemical Biology, 2025).
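Further: each temperature applied for 3 min, abundance score taken as mean log2 fold change at the two lowest temperatures, z-score obtained by mean subtraction and division by SD.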

Sequence of UniProt P23511 (P23511 whole entry): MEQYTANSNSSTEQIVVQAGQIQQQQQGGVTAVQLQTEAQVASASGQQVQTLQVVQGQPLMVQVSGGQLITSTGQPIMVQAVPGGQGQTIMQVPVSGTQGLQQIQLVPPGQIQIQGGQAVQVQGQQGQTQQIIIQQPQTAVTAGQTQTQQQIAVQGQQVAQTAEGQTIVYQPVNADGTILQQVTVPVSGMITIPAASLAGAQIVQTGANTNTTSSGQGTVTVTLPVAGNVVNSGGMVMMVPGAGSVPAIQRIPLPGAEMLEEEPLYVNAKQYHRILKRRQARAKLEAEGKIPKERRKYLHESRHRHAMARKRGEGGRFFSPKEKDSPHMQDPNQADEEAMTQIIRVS
Sequence of UniProt Q8NBL1 (Q8NBL1 whole entry): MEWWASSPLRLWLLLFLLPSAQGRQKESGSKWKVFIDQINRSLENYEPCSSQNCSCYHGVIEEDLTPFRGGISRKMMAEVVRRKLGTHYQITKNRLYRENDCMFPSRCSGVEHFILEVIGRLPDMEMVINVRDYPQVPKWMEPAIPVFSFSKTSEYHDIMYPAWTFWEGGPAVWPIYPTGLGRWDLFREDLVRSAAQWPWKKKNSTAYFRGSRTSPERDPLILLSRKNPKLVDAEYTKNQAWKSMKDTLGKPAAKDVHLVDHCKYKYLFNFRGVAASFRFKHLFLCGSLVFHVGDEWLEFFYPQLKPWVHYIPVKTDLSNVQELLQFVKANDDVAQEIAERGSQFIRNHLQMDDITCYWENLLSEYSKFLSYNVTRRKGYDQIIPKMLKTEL
Sequence of UniProt Q13535 (Q13535 whole entry, looked up): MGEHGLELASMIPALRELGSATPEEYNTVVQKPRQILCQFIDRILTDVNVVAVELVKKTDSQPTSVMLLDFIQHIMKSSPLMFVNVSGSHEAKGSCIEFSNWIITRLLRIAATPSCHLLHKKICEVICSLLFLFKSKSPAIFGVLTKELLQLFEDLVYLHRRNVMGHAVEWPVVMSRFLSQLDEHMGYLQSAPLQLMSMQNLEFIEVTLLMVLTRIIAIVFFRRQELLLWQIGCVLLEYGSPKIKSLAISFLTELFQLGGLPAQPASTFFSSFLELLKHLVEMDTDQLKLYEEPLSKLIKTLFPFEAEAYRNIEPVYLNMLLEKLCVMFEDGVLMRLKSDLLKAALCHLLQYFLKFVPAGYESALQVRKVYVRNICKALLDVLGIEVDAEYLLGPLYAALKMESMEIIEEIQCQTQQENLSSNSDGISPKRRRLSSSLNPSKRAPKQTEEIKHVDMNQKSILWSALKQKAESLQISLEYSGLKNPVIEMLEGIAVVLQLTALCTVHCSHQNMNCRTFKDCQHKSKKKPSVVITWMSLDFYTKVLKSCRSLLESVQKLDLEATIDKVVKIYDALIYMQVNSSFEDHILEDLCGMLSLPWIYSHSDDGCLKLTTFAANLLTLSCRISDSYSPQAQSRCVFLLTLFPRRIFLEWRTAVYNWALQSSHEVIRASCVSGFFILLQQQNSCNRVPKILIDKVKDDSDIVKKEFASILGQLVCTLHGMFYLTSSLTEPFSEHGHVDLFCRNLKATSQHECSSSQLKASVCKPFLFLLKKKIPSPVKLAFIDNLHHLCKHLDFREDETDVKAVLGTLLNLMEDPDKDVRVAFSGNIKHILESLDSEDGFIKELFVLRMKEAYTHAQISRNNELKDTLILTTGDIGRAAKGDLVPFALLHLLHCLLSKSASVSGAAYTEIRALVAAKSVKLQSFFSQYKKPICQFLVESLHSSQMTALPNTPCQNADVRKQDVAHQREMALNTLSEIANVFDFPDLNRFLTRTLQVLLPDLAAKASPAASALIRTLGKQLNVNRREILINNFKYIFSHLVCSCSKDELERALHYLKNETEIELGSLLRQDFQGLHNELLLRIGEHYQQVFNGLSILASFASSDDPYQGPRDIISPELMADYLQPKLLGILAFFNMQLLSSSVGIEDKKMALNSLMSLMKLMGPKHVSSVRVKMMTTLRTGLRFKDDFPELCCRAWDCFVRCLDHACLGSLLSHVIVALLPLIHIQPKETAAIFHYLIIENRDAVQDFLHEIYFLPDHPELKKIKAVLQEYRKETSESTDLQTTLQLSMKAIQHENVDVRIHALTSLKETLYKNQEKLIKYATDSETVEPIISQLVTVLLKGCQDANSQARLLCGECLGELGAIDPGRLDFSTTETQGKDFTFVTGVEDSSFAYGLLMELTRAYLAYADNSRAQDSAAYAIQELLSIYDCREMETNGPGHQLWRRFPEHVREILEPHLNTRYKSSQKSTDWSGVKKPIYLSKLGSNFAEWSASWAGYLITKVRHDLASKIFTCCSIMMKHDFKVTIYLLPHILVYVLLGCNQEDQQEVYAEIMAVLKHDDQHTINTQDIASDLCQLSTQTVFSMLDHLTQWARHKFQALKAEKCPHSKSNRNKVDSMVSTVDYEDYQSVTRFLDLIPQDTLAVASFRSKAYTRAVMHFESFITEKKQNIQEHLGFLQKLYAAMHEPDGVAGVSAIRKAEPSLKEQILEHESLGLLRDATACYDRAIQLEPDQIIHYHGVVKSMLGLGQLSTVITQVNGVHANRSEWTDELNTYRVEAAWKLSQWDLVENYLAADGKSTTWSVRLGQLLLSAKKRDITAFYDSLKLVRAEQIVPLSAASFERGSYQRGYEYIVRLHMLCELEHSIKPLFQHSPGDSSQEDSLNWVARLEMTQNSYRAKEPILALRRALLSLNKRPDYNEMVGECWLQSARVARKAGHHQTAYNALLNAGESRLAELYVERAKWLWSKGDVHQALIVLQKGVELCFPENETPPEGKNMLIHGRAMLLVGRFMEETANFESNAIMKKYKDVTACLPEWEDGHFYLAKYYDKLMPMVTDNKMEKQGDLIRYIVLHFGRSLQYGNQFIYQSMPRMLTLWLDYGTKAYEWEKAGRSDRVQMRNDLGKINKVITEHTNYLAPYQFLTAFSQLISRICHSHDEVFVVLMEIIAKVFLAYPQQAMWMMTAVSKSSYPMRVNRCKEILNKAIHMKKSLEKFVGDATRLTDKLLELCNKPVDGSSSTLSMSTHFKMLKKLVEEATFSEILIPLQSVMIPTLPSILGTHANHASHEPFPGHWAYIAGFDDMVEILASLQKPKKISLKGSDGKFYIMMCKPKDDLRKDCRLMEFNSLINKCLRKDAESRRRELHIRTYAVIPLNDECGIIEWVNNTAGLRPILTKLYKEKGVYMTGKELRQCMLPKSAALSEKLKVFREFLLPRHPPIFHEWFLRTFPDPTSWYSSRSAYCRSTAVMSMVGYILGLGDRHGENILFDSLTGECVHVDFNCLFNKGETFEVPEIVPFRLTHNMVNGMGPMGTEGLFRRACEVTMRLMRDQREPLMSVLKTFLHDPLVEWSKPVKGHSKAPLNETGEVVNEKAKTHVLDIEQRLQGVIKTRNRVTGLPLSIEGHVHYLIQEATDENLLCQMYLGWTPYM
Sequence of UniProt Q8WXE0 (Q8WXE0 whole entry): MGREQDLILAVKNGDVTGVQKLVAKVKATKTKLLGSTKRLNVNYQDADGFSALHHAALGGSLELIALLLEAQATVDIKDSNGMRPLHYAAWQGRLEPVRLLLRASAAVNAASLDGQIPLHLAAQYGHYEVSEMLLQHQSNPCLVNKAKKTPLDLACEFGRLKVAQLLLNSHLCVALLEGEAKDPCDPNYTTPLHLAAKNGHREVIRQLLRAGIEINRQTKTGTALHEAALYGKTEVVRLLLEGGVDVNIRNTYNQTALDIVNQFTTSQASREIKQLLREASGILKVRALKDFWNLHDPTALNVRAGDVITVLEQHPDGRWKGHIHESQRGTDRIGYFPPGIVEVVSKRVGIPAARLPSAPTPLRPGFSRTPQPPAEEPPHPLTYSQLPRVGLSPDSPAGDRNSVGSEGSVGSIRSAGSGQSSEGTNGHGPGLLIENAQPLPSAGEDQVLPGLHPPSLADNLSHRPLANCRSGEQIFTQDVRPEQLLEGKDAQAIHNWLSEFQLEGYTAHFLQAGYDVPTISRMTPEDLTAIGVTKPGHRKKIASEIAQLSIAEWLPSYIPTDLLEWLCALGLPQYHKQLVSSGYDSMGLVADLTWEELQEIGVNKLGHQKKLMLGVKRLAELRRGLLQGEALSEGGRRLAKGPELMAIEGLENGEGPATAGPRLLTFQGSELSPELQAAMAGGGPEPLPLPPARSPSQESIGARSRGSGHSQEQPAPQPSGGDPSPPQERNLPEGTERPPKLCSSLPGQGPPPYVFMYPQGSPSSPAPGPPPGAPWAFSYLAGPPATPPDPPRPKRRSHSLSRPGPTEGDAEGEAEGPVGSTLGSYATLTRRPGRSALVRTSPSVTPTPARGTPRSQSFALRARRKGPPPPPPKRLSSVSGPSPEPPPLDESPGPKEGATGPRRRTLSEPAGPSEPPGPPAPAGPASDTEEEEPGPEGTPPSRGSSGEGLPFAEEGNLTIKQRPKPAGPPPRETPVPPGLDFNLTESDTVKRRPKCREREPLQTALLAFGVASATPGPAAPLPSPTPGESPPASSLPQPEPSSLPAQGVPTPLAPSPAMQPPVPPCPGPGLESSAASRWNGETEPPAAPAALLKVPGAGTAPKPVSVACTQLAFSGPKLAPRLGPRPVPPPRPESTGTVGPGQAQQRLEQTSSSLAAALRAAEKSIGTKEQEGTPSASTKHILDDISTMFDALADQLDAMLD
Sequence of UniProt Q9NQT4 (Q9NQT4 whole entry): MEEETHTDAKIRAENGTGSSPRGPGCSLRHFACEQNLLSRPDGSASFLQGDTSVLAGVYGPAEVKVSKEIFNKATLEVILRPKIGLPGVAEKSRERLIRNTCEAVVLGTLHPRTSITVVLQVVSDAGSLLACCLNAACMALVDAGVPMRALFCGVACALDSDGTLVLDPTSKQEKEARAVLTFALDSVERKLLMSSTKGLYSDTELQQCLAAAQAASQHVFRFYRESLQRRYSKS
Sequence of UniProt Q92572 (Q92572 whole entry): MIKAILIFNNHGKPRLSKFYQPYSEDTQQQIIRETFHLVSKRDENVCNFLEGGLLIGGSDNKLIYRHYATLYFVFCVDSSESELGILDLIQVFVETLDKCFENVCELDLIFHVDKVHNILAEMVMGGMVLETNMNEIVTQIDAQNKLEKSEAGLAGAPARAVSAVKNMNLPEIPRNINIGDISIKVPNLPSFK

For the target PCCA (UniProt P05165), the thermal stability z-score in the test with lipoamide (setting [1]) was 0.202; with lipoamide (arsenate co-treatment: none) it was 0.198; with potassium arsenate, -0.314.
For DMD (UniProt P11532), in that order: 0.0264, -0.124 and -0.176.
For PAAF1 (UniProt Q9BRP4), in that order: -0.442, -0.906 and -0.478.
Regarding MAGED2 (UniProt Q9UNF1), the thermal stability z-score with lipoamide (setting [1]) is -0.0801; in the test with lipoamide (arsenate co-treatment: none), 0.24; with potassium arsenate, 0.741.
For CYP51A1 (UniProt Q16850), in that order: -0.665, -0.0953 and 0.803.
Take CCDC12 (UniProt Q8WUD4): the thermal stability z-score in the test with lipoamide (setting [1]) was 0.646; with lipoamide (arsenate co-treatment: none), 0.397; with potassium arsenate, -0.605.
The matching figures for HIF1AN (UniProt Q9NWT6): -0.806, -0.553 and 0.463.
NFYA (UniProt P23511): the results for the thermal stability z-score in the test with lipoamide (setting [1]), with lipoamide (arsenate co-treatment: none) and with potassium arsenate were 0.401, -0.0763 and -0.528, respectively.
The matching figures for TMED2 (UniProt Q15363): -0.867, -1.06 and 0.624.
For HSPA4L (UniProt O95757), in that order: 0.0785, -0.0888 and 0.388.
On to HNRNPLL|HNRPLL, for which the results for the thermal stability z-score in the test with lipoamide (setting [1]), with lipoamide (arsenate co-treatment: none) and with potassium arsenate were -0.126, -0.082 and -0.917, respectively.
For ATR (UniProt Q13535), the thermal stability z-score in the test with lipoamide (setting [1]) is -0.0437; with lipoamide (arsenate co-treatment: none), 0.124; with potassium arsenate it was -0.568.
For TRMT61B (UniProt Q9BVS5), in that order: -1.22, -0.842 and -0.271.
For the target ERP29 (UniProt P30040), the thermal stability z-score in the test with lipoamide (setting [1]) is -0.51; in the test with lipoamide (arsenate co-treatment: none), -0.193; in the test with potassium arsenate, 0.32.
For PPM1H (UniProt Q9ULR3), in that order: -1.19, 0.00662 and -1.01.
Consider NDUFV2 (UniProt P19404), for which the values for the thermal stability z-score in the test with lipoamide (setting [1]), with lipoamide (arsenate co-treatment: none) and in the test with potassium arsenate were 0.418, -0.0827 and 0.966, respectively.
For USP5 (UniProt P45974), in that order: 0.0243, 0.351 and 0.0981.
The matching figures for TSC1 (UniProt Q92574): 0.103, -0.0297 and -0.0936.
For DCLK2 (UniProt Q8N568), in that order: -0.19, 0.0433 and 0.0241.
Take EXOSC5 (UniProt Q9NQT4): the results for the thermal stability z-score with lipoamide (setting [1]), with lipoamide (arsenate co-treatment: none) and with potassium arsenate were 1.79, 1.03 and -0.564, respectively.
Take POLR2A (UniProt P24928): the thermal stability z-score with lipoamide (setting [1]) was 0.89; with lipoamide (arsenate co-treatment: none), 0.82; in the test with potassium arsenate it was -0.684.
The matching figures for DCTN4 (UniProt Q9UJW0): -0.368, -0.0931 and -0.11.
For SERPINB1 (UniProt P30740), in that order: 0.391, 0.191 and 0.23.
For LIAS (UniProt O43766), in that order: 1.93, 3.09 and -2.31.
Consider PCYOX1 (UniProt Q9UHG3), for which the thermal stability z-score in the test with lipoamide (setting [1]) was 0.606; in the test with lipoamide (arsenate co-treatment: none), -0.723; in the test with potassium arsenate, 0.0412.
For CYSTM1 (UniProt Q9H1C7), in that order: -0.79, 0.912 and -1.22.
Turning to PTP4A2 (UniProt Q12974), the thermal stability z-score in the test with lipoamide (setting [1]) came out at 1.78; in the test with lipoamide (arsenate co-treatment: none), 1.15; with potassium arsenate, 0.861.
Turning to PPP3CA (UniProt Q08209), the thermal stability z-score stood at 1.25 with lipoamide (setting [1]), 0.912 with lipoamide (arsenate co-treatment: none) and 0.275 in the test with potassium arsenate.
Take ST3GAL4 (UniProt Q11206): the thermal stability z-score in the test with lipoamide (setting [1]) was -0.112; with lipoamide (arsenate co-treatment: none) it was 0.0672; with potassium arsenate it was 0.726.
The matching figures for RPS19BP1 (UniProt Q86WX3): -0.305, -0.278 and -0.522.
The matching figures for GNG12 (UniProt Q9UBI6): 1.21, 1.3 and 0.329.
The matching figures for SNRPD2 (UniProt P62316): 1.08, 0.689 and 1.15.
For the target DDX11 (UniProt Q96FC9), the thermal stability z-score was -0.753 in the test with lipoamide (setting [1]), -0.517 with lipoamide (arsenate co-treatment: none) and 1.07 with potassium arsenate.
The matching figures for CASKIN2 (UniProt Q8WXE0): -0.798, 0.441 and 0.938.
As for NUDT21 (UniProt O43809), the figures for the thermal stability z-score with lipoamide (setting [1]), with lipoamide (arsenate co-treatment: none) and with potassium arsenate were 1.57, 0.0301 and -0.633, respectively.
POGLUT1 (UniProt Q8NBL1): the thermal stability z-score with lipoamide (setting [1]) is -3.26; with lipoamide (arsenate co-treatment: none), -3.23; with potassium arsenate, 1.16.
For EXOC7 (UniProt Q9UPT5), in that order: -0.927, -0.435 and -0.227.
The matching figures for NDE1 (UniProt Q9NXR1): 0.584, 0.266 and 0.0354.
With DEPDC7 (UniProt Q96QD5), the figures for the thermal stability z-score with lipoamide (setting [1]), with lipoamide (arsenate co-treatment: none) and with potassium arsenate were -0.328, -0.237 and -0.221, respectively.
On to TESC (UniProt Q96BS2), for which the thermal stability z-score in the test with lipoamide (setting [1]) came to 0.565; with lipoamide (arsenate co-treatment: none), 0.315; with potassium arsenate, 0.846.
For AP3S1 (UniProt Q92572), in that order: 0.0661, 0.0785 and 0.131.
For EIF4A2 (UniProt Q14240), in that order: 1.14, 0.893 and 0.658.
